Results: EPA's ToxValDB 9.5 (doi:10.2903/j.efsa.2018.5211)
≈ marks a conversion by molar mass, not a printed value.

Tests used:
Canidae = settings: subchronic; duration: 90 days; dermal; Dog Other; organ weight
Daphnia magna = settings: chronic/long-term; duration: 21 days; reproduction
Apis mellifera = settings: acute, duration: 48 hours, mortality
Tagia sp. = settings: chronic/long-term; duration: 56 days; growth
Neomysis kadiakensis = settings: acute; duration: 48 hours; mortality
Folsomia candida = settings: chronic/long-term; mortality
Aphidius rhopalosiphi = test: LR50; higher = less toxic; settings: not reported; mortality
Typhlodromus pyri = test: LR50; higher = less toxic; settings: not reported; reproduction

## COC[C@H](C)N(C(=O)CCl)c1c(C)csc1C [Dimethenamid-P]
Colinus virginianus; acute, oral, mortality
  LD50: 1070 mg/kg-day
Colinus virginianus; chronic, mortality
  LEL: 107 mg/kg-day
Colinus virginianus; reproduction developmental
  NOAEL: 114 mg/kg-day
Canidae
  NOAEL: 4.3 mg/kg-day
Oncorhynchus mykiss; acute, duration: 96 hours, mortality
  LC50: 2.6 µg/mL (≈ 9.43 µM)
Oncorhynchus mykiss; chronic/long-term, growth
  NOEC: 0.12 mg/L
Daphnia magna
  NOEC: 0.68 mg/L
Apis mellifera; dermal
  LD50: 93.8 µg/piece
Apis mellifera; oral, unspecified
  LD50: 119 µg/piece
Tagia sp.
  NOEC: 25.4 mg/kg
Neomysis kadiakensis
  LC50: 3.2 µg/mL (≈ 11.6 µM)
Folsomia candida
  NOEC: 12.5 mg/kg
Rattus norvegicus; acute, oral, mortality
  LD50: 466 mg/kg-day
Rattus norvegicus; chronic, duration: 2 years, organ weight
  NOAEL: 5 mg/kg-day
Rattus norvegicus; developmental, development
  NOAEL: 25 mg/kg-day
Rattus norvegicus; reproduction developmental, food consumption
  LOAEL: 25 mg/kg-day
Aphidius rhopalosiphi
  LR50: 66.3 mL/ha
Typhlodromus pyri
  LR50: > 1.4e+06 mL/ha
